Assay results published in patent US20140242609A1, “Diagnosis and treatment of kidney stones, methods and compositions therefor” (Washington University, priority 2013, published 2014).

Experiments:
claudin-14 protein = claudin-14 protein levels in freshly isolated TALH cells pooled from treated mouse kidneys (western blot); format: in vivo; conditions: for claudin-14 protein levels, change: 30 mg/kg BW−1 per day for 6 days, 24 hrs following the last treatment
Method: (§1) An immunomagnetic separation method was used to isolate the TAL cells from the mouse kidney (Hou et al., 2009). Antibodies against the TAL cell specific surface antigen, Tamm-Horsfall protein (THP), were coated onto the paramagnetic polystyrene beads (Dynabeads M-280; Dynal), allowing immunoprecipitation of the TAL cells from collagenase digested mouse kidneys. The isolated cells were plated in DMEM medium supplemented with 10% FBS, penicillin/streptomycin, and 1 mM sodium pyruvate for 16 hours, followed by immediate transfection with NFAT or antagomirs.
Because of the low abundance of claudin-14 proteins in the whole kidney, an immunomagnetic separation method was adapted to freshly isolate the TALH tubular cells from the kidneys of each treated mouse, pooled the TALH cells from all animals (N=5) within each treatment group and quantified claudin-14 protein levels by western blot. […] Claudin-14 proteins were immunostained in mouse kidneys to investigate changes in TJ localization.
An immunomagnetic separation method was used to isolate the TALH cells from the mouse kidney. (Gong Y, et al. 2012 and Gong Y, et al. 2013) Antibodies against the TALH cell specific surface antigen, Tamm-Horsfall protein, were coated onto the paramagnetic polystyrene beads (Dynabeads M-280; Dynal), allowing immunoprecipitation of the TALH cells from collagenase digested mouse kidneys. The isolated cells were plated in DMEM medium supplemented with 10% FBS, penicillin/streptomycin, and 1 mM sodium pyruvate for 16 hours, followed by immediate treatment.
as §1, with “TALH” for “TAL”, “kidney. (Gong, Y.,” for “kidney (Hou”, “2012; Hou, J., et al., 2009)” for “2009).”, “(THP; a GPI-anchored protein that is exclusively expressed in the TALH and the early part of the DCT,) (Stricklett, P. K., et al., 2003; Bernascone, I., et al., 2010)” for “(THP),”, “NFAT.” for “NFAT or antagomirs.”
Changes in claudin-14 protein levels were captured as early as 2 hrs following a single oral dose of NPS2143 or cinacalcet (30 mg/kg BW^−1) treatment. Because of the low abundance of claudin-14 proteins in the whole kidney, the inventors adapted an immunomagnetic separation method to freshly isolate the TALH tubular cells from the kidneys of each treated mouse (described in Gong, Y., et al., 2012 and Hou, J., et al. 2009; see Methods), pooled the TALH cells from all animals (N=5) within each treatment group, isolated plasma membrane proteins and quantified claudin-14 protein levels by western blot. […] Although claudins were previously considered static molecules sequestered in the tight junction, several recent studies have found similarly rapid turnover rate of less than 60 min for claudins (see Discussion). Claudin-14 proteins were inummuostained in mouse kidneys to investigate changes in TJ localization.

pri-miR-374 = pri-miR-374 transcript levels in TALH of treated mouse kidneys (real-time PCR); format: in vivo; conditions: for pri-miR-374 levels versus control: 8 hrs
Source text: Total RNA including microRNA was extracted using Trizol (Invitrogen). Cellular mRNA was reverse transcribed using the Superscript-III kit (Invitrogen), followed by real-time PCR amplification using SYBR Green PCR Master Mix (Bio-Rad) and Eppendorf Realplex2S system. The design of claudin-14 primers was described above. The design of pri-miRNA primers was according to Ma et al., (2010). Results were expressed as 2^−ΔCt values with ΔCT=Ctgene−Ctβ-actin.
To measure the transcriptional level for microRNA gene in vivo in the kidney, the inventors designed primers (see Methods; Table 2) to amplify the pri-miRNA molecule, the original transcript for microRNA gene that had not yet been subjected to any nuclear or cellular processing. Because both miR-9 and miR-374 had broader localization profiles along the nephron, the inventors isolated the TALH tubular cells for pri-miRNA analyses from the mouse kidney described elsewhere in this study. WT mice (strain: C57BL/6) were treated with NPS2143 or cinacalcet as described for claudin-14 analyses and assayed for pri-miRNA levels in isolated TALH cells at 2 hrs and 8 hrs respectively. […] NPS2143 and cinacalcet also profoundly regulated pri-miR-374. […] The expression levels of miR-9-1 and miR-374 genes were both inversely correlated with that of claudin-14 gene in the kidney, compatible with the silencing role of microRNA in regulating its target gene.
Total RNA including microRNA was extracted using Trizol (Invitrogen). Cellular mRNA was reverse transcribed using the Superscript-III kit (Invitrogen), followed by real-time PCR amplification using SYBR Green PCR Master Mix (Bio-Rad) and Eppendorf Realplex2S system. The design of claudin-14 primers was described before by Gong et al., 2012. The design of pri-miRNA primers and ChIP primers was according to Gong et al., 2013. Results were expressed as 2^−ΔCt values with ΔCT=Ctgene−Ctβ-actin.
Total RNA including microRNA was extracted using Trizol (Invitrogen). Cellular mRNA was reverse transcribed using the Superscript-III kit (Invitrogen), followed by real-time PCR amplification using SYBR Green PCR Master Mix (Bio-Rad) and Eppendorf Realplex2S system. The design of claudin-14 primers was described before by Gong. Y., et al., 2012. The design of pri-miRNA primers was according to Ma. L., et al., 2010. Results were expressed as 2^−ΔCt values with ΔCT=Ctgene−Ctβ-actin.

miR-374 promoter = experiment: ChIP over miR-374 promoter in TALH cells of treated mice; format: in vivo, mouse; conditions: for H3K9 and H3K14 acetylation levels, miR-374 promoter region / fold enrichment of NFATc1 over miR-374 promoter region: 30 mg/kg BW−1, 2 hrs; for H3K9 and H3K14 acetylation levels, miR-374 promoter region: higher than vehicle level; for fold enrichment of NFATc1 over miR-374 promoter region: versus vehicle
Method: (§2) Freshly isolated TALH cells or primary TALH cell cultures were cross-linked in 1% paraformaldehyde (pH7.0) for 10 min at room temperature. The cross-linked cells were lysed following to instruction of MAGnify ChIP system (Invitrogen). Chromatin was sonicated into 500 bp fragments with Bioruptor UCD-200 (High power, 15 cycles of 30 seconds ON, 30 seconds OFF; Diagenode). Sheared chromatin was precipitated with antibody-bound Dynabeads (Invitrogen). Following reverse crosslink and DNA extraction, antibody-bound DNA was eluted and analyzed with real-time PCR. Two criteria for normalization were applied: fold enrichment over anti-IgG background signal and input control over chromatin input signal.
as §2, with “OFF,” for “OFF;”

[1] = cyclosporine-A pre-treated animals, 30 mg/kg BW−1, 2 hrs

O=C(CCCCCCC(=O)Nc1ccccc1)NO [SAHA, Suberanilohydroxamic acid]
CLDN14 protein levels, reduction (claudin-14 protein; 25 mg/kg BW−1, 4 hr): 60% | transcriptional levels of miR-374 gene (pri-miR-374), increase (pri-miR-374; 25 mg/kg BW−1, 4 hrs): 1.85 fold | H3K9 and H3K14 acetylation, miR-374 promoter, increase (miR-374 promoter; 25 mg/kg BW−1, 4 hrs): 2.45 fold | NFAT binding to miR-374 promoter (miR-374 promoter; 25 mg/kg BW−1, 4 hrs): not affected

C[C@@H](NCCCc1cccc(C(F)(F)F)c1)c1cccc2ccccc12 [cinacalcet]
claudin-14 protein levels, change (claudin-14 protein): Neither NPS2143 nor cinacalcet caused changes | claudin-14 protein levels, upregulation (claudin-14 protein; single oral dose 30 mg/kg BW−1, 2 hrs): 2.98 fold | pri-miR-374, downregulation (pri-miR-374; 30 mg/kg BW−1, 2 hrs): 71% | pri-miR-374 levels versus control (pri-miR-374; 30 mg/kg BW−1): not different from control | pri-miR-374 level, reduction (pri-miR-374; TPTX mice, 30 mg/kg BW−1, 2 hrs): 53% | pri-miR-374 mRNA levels, decrease (pri-miR-374; [1]): 39% | H3K9 and H3K14 acetylation levels, miR-374 promoter region (miR-374 promoter): not | fold enrichment of NFATc1 over miR-374 promoter region (miR-374 promoter): without significant effect

CC(C)(Cc1ccc2ccccc2c1)NC[C@@H](O)COc1cccc(Cl)c1C#N [NPS2143]
claudin-14 protein levels, change (claudin-14 protein): Neither NPS2143 nor cinacalcet caused changes | claudin-14 protein levels, percent of the vehicle treatment (claudin-14 protein; single oral dose 30 mg/kg BW−1, 2 hrs, densitometric scale): 32% | pri-miR-374, upregulation (pri-miR-374; 30 mg/kg BW−1, 2 hrs): 2.91 fold | pri-miR-374 levels versus control (pri-miR-374; 30 mg/kg BW−1): not different from control | pri-miR-374 level, change (pri-miR-374; TPTX mice, 30 mg/kg BW−1): failed to elicit a significant change | pri-miR-374 mRNA levels, change (pri-miR-374; [1]): failed to elicit any significant change | H3K9 and H3K14 acetylation levels, miR-374 promoter region (miR-374 promoter): 1.93 fold | fold enrichment of NFATc1 over miR-374 promoter region (miR-374 promoter): 1.51 fold
